Legend:
Format in all cases: cell-based
[1] = tested on: AIMP2; experiment: Western blotting of AIMP2 protein expression in H460 cells; details: FIG. 2
Description: (§1) The present inventors conducted western blotting and RT-PCR using AIMP2 antibody and AIMP2-DX2 antibody (purchased from Neomics (Korea)) to verify the effect of the compound of chemical formula 1 on AIMP2-DX2 activity.
(§2) A western blotting test was conducted to investigate the effect of C11 on the AIMP2-DX2 protein level.
(§3) H460 cells were treated with the compound, C11, for a predetermined period of time, and the protein was extracted from the cells using a RIPA buffer containing protease. The protein was isolated using 10 to 12% SDS-PAGE, and then immunoblotting was conducted using an ECL system as a specific antibody.

[2] = tested on: lung cancer cell line NCI-H460; experiment: MTT assay, cytotoxicity on lung cancer cells (H460); details: NCI-H460, serum free RPMI, 0.04 uM, 0.4 uM, 4 uM and 40 uM, 48 hours, FIG. 3
Description: A lung cancer cell line NCI-H460 was cultured in an RPMI medium (HyQ RPMI-1640, Hyclone) containing 10% fetal bovine serum and 1% penicillin/streptomycin for 48 hours, and then transferred to a 96-well plate. After 12 hours, the medium was exchanged with the serum free RPMI medium, and then was treated with the compound of chemical formula 1 with 0.04 uM, 0.4 uM, 4 uM, and 40 uM. After 48 hours, MTT assay was conducted.

[3] = tested on: AIMP2-DX2 mRNA; experiment: RT-PCR of AIMP2-DX2 mRNA level in H460 cells treated with C11; details: different concentrations of C11, RT-PCR, FIG. 1
Description: as §1
H460 cells were treated with C11 with different concentrations, and then total-RNA was isolated according to the protocol of the manufacturer (Qiagen). The cells were collected, and mixed with 350 μl of a lysis buffer, which was then homogenized using a homogenizer or a syringe. After 350 μl of 70% ethanol was added, the lysate was shook above and below several times, and loaded on the column, followed by centrifuge at 13,000 RPM for 15 seconds. The column was washed twice with a washing buffer, and then RNA was eluted with 40 μl of RNase-free DW.
For reverse transcription, 1 μg of the isolated RNA was used as AIMP2-specific primers (SEQ ID NO: 2 and SEQ ID NO: 3) and DX2-specific primers (SEQ ID NO: 4 and SEQ ID NO: 5). After the reverse transcription, the product was diluted with 3-fold DW, and then 1 μl was used for 30 μl of PCR reaction including 0.5 μl dNTP (each 2.5 mM), 0.5 μl of the AIMP2 specific primer set (SEQ ID NO: 2 and SEQ ID NO: 3) and DX2 specific primers (SEQ ID NO: 4 and SEQ ID NO: 5) (each 10 pM), 1.5 μl of DMSO, and 0.1 μl of Taq polymerase (5 U/μl).

[4] = tested on: WI-26 human diploid fibroblast cell line from embryonic lung tissue; experiment: MTT assay, cytotoxicity on normal cell line WI-26; details: WI-26 cells, compared with a control, FIG. 4
Description: In order to evaluate cytotoxicity of C11 on a normal cell line, WI-26, which is a human diploid fibroblast cell line from embryonic lung tissue, was treated with C11, and then cell viability was measured by MTT assay and compared with a control.

[5] = target: T1, AIMP2-DX2 (Homo sapiens, UniProt Q13155); experiment: Western blotting of AIMP2-DX2 protein level in H460 cells; details: FIG. 2
T1 construct: the protein was extracted from the cells using a RIPA buffer containing protease; endogenous in cells; host or cells: H460
T1 sequence (Q13155 1-251 isoform Q13155-2): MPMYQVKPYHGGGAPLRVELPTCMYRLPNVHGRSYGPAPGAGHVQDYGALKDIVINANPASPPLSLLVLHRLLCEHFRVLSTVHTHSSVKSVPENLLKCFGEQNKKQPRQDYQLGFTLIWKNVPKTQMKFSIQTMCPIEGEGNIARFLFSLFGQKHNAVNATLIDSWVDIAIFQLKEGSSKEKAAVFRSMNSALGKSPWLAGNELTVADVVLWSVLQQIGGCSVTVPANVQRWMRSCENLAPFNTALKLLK
Description: as §1, §2, §3

Cc1ccc(S(=O)(=O)N[C@@H](CC(C)C)C(=O)N2CCOCCOCCOCC2)cc1 [C11, 1,4,7-Trioxa-10-azacyclododecane, 10-[4-methyl-2-[[(4-methylphenyl)sulfonyl]amino]-1-oxopentyl]]
effect on the AIMP2 protein expression [1]: no effect
lung cancer cell line viability (MTT) [2]: killed by the compound, C11, in a concentration dependent manner
effect on the mRNA level of AIMP2-DX2 [3]: no effect
cytotoxicity on normal cells (cell viability, MTT) [4]: cytotoxicity was not observed
effect on the AIMP2-DX2 protein level [5]: reduced the AIMP2-DX2 protein level in a concentration dependent manner
